Source: US20200046654A1, “BUPROPION AND PHARMACEUTICAL COMPOSITION FOR TREATING CANCER AND METHOD FOR INHIBITING MIGRATION OF TUMOR CELLS” (NATIONAL CHIAO TUNG UNIVERSITY, priority 2018, published 2020)

Legend:
MDA-MB-231 cells [1] = assay: cell migration assay, MDA-MB-231; type: cell-based, human; settings: 12 hours, with or without nicotine
Procedure: (§1) MDA-MB-231 cells well treated with or without (control group) nicotine, DMSO, 0.1 μM, and 1 μM bupropion were then respectively added to the cells. Twelve hours after bupropion addition, the cells were fixed with formaldehyde, and stained with PI for 30 minutes; then photos of the cells were acquired. The numbers of migrating cells were calculated by imageJ software. This assay was repeated 3 times.

[2] = tested on: MDA-MB-231 cells with a luminescence reporter gene; assay: MDA-MB-231-based spontaneous pulmonary metastasis animal model; type: in vivo, SCID mice; settings: two months; for number of the migrating tumor cells to the lungs (photon flux): bupropion i.p. three times a week, 100 or 200 μg per kilogram
Procedure: MDA-MB-231 cells with a luminescence reporter gene were implanted into severe combined immunodeficiency (SCID) mice. The nicotine treatment was carried out by adding nicotine (10 μg/ml) to the drinking water of the mice. The mice were injected intraperitoneally with bupropion three times a week at doses of 100 or 200 μg per kilogram. After two months, the mice were sacrificed and the lungs were dissected. IVIS was used to take the luminescence images of the lungs. The photon influx measured in the images represents the metastasis level of the mouse tumor cells to the lung tissue.

MDA-MB-231 cells [3] = assay: cell invasion assay (Matrigel invasion chambers); type: cell-based, human; settings: 48 hours, with or without nicotine
Procedure: The inhibitory effect of bupropion on tumor invasion was tested by cell invasion assay. MDA-MB-231 cells were plated on to Matrigel invasion chambers in serum-starved medium, and the cells in the lower chamber were cultured using normal medium. The media in both of the upper and the lower chambers contained 0.1 μM bupropion, or 1 μM bupropion, and the cells were treated with or without (control group) nicotine. After the cells were cultured for 48 hours, the upper chambers were washed with PBS and fixed with formaldehyde for 30 minutes. The cells in the upper chambers were stained with crystal violet for two hours, and photos were acquired under a microscope. The numbers of invading tumor cells were calculated by ImageJ software.

MDA-MB-453 = assay: cell migration assay, MDA-MB-453; type: cell-based, human
Procedure: as §1
In addition, a HER2 overexpression subtype of a breast cancer cell line, MDA-MB-453, was used to test the inhibitory effect of bupropion on tumor migration. The experimental method was the same as the cell migration assay of Example 7 above.

CHRNA9/ERBB2 complex = CHRNA9/ERBB2 complex (Homo sapiens, UniProt Q9UGM1); settings: oral nicotine, at 30 minutes of exposure, vs before exposure
CHRNA9/ERBB2 complex, sequence (Q9UGM1 23-479, one chain of several): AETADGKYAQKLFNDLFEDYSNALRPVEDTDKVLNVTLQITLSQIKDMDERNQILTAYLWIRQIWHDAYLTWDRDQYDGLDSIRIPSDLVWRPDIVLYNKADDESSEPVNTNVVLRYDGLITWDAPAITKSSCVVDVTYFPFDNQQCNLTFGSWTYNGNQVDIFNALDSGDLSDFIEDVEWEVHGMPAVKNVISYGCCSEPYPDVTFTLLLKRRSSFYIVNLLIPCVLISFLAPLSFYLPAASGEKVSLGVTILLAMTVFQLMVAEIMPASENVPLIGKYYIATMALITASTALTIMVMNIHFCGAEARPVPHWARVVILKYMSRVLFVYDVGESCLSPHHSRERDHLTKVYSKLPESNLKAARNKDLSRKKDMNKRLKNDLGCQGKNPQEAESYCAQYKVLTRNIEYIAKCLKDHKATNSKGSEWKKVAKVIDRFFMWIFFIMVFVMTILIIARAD
Text: Split luciferase complementation assay was used to investigate the association and dissociation between CHRNA9 and ERBB2.
The N terminal (Nluc) and the C terminal (Cluc) of luciferase were respectively constructed with ERBB2 and CHRNA9 to form the plasmids expressing the fusion proteins. When ERBB2 and CHRNA9 interact with each other, the Nluc and the Cluc are also close to each other to assemble together, and present luciferase activity. Therefore, after Luciferin addition, luminescence can be generated. When ERBB2 and CHRNA9 dissociate from each other, the Nluc and Cluc also dissociate from each other; therefore, no luciferase activity exists.
Then a xenograft animal model was used. Plasmids expressing ERBB2/Nluc fusion protein and plasmids expressing CHRNA9/Cluc fusion protein were co-transfected into MDA-MB-231 cells, then the cells expressing the fusion proteins were injected into the mammary pads of nude mice.

CHRNA9/CFP and ERBB2/YFP = CHRNA9/CFP and ERBB2/YFP (Homo sapiens, UniProt Q9UGM1)
CHRNA9/CFP and ERBB2/YFP, sequence (Q9UGM1 23-479): as the sequence (Q9UGM1 23-479, one chain of several) above
Text: In order to further investigate the interaction between CHRNA9 and ERBB2 ex vivo, a plasmid expressing CHRNA9/CFP and a plasmid expressing ERBB2/YFP were constructed and then co-transfected into MDA-MB-231 cells. FRET and fluorescence-lifetime imaging microscopy (FLIM) were used.
To further clarify whether CHRNA9 and ERBB2 are dissociated after nicotine exposure, two-photon FLIM was used to monitor the FRET activity between CHRNA9/CFP and ERBB2/YFP. The plasmids expressing CHRNA9/CFP and the plasmids expressing ERBB2/YFP were co-transfected into MDA-MB-231 cells. After two days, the cells were treated with 10 μM nicotine.

Row | SMILES | migration of MDA-MB-231 cells (MDA-MB-231 cells [1]; 0.1 μM bupropion) | migration of MDA-MB-231 cells (MDA-MB-231 cells [1]; 1 μM bupropion) | number of the migrating tumor cells to the lungs (photon flux) ([2]; nicotine-free mice) | number of the migrating tumor cells to the lungs (photon flux) ([2]; nicotine-treated mice) | invasion of MDA-MB-231 cells (MDA-MB-231 cells [3]; 0.1 μM bupropion) | invasion of MDA-MB-231 cells (MDA-MB-231 cells [3]; 1 μM bupropion) | migration of MDA-MB-453 cells (MDA-MB-453; 0.1 μM bupropion) | migration of MDA-MB-453 cells (MDA-MB-453; 1 μM bupropion) | number of the metastatic tumor cells in the lung tissues (photon flux) ([2]; nicotine 10 μg/ml in drinking water) | photon influx (luciferase activity in tumor region) relative to control group (CHRNA9/ERBB2 complex) | FRET activity on the cell membrane between CHRNA9/CFP and ERBB2/YFP (CHRNA9/CFP and ERBB2/YFP; after 10 μM nicotine exposure, MDA-MB-231 cells) | FRET activity on the membrane after removal of nicotine (CHRNA9/CFP and ERBB2/YFP; cells washed with PBS to remove nicotine)
1 | CC(NC(C)(C)C)C(=O)c1cccc(Cl)c1 (stereo not drawn) [bupropion] | significantly inhibited | significantly inhibited | significantly decreased | significantly decreased | significantly inhibited | significantly inhibited | significantly inhibited | significantly inhibited | – | – | – | –
2 | CN1CCCC1c1cccnc1 (stereo not drawn) [nicotine] | – | – | – | – | – | – | – | – | significantly increased | 26.3% | gradually decreased | gradually recovered to the baseline
